Results published in US9427433B2, “Methods and compositions for enhancing fertility and/or inhibiting pregnancy failure and restoring glucose tolerance” (Queen's University at Kingston, priority 2011, dated 2016).

What was measured:
[1] = tested on: NZO mice fed a high fat diet; experiment: Fasting serum glucose, fasting serum insulin and glucose tolerance, comparison of macrolides; type: in vivo, mouse
Procedure: (§1) Female mice were administered tacrolimus (0.1 mg/kg or 0.05 mg/kg, n=6/group), vehicle (n=10), pimecrolimus (0.1 mg/kg, n=6) or sirolimus (0.1 mg/kg, n=6) subcutaneously every other day for 3 weeks.
(§2) For the comparative evaluation of other macrolide drugs to tacrolimus, mice starting at 7 weeks of age were maintained on the high fat diet for a total of 13 weeks of study period. Mice were entered into the experiments when determined to be glucose intolerant as described above. Methods of drug administration and other experimental methods were as described above.
Glucose Tolerance Test (GTT): was performed according to standard protocol (Ayala et al 2010). Briefly, basal glucose levels were measured for conscious mice individually caged in 1000 cc plastic mouse caging using a one-touch ultra glucose strips and meter (Acqui-check Aviva, Roche, Montreal, Canada) and approximately 30 microliters of blood obtained via tail venipuncture prior to fasting for six hours in cages equipped with hardwood bedding. Fasting blood glucose was recorded at the end of the six hours fasting period. Mice were then tested for oral glucose tolerance (OGTT) or for insulin sensitivity (Si). For OGTT alert mice were then given 20% D-glucose (2 g/kg body weight) sterile syrup administered orally. For Si experiments mice were given 20% D-glucose (2 g/kg body weight) sterile syrup by intraperitoneal administration through a 1 ml D29 gage “½” insulin syringe (Fisher Scientific, Montreal, Canada). Then after, blood glucose was recorded at 15, 30, 45, 60, 90 and 120 minutes respectively. For Si experiments blood glucose was determined only at 15 minutes. Glucose tolerance graphs were generated by blotting mean±standard error of the mean (SEM) of the recorded glucose data per mouse per minute collection time. One way analysis of variance (ANOVA) followed by student t-test was performed to determine alpha values for statistical differences among mean blood glucose values across experimental mice groups.
Fasting immuno-reactive mouse insulin levels were quantitatively determined in citrated platelet-free plasma samples obtained from 6 hours-fasting mice using an Ultrasensitive mouse Insulin Eliza kit (#90080, Crystal chem., IL, USA) according to the manufacturer instructions. Briefly, platelet-free plasma were isolated from freshly obtained citrated whole blood samples of fasting mice and the provided insulin standards were incubated overnight on a shaking platform at 4 C^0 in a 96 wells plate coated with Guinea pig anti-insulin. Afterwards, unbound sample materials were thoroughly washed with the supplied wash buffers and the bound guinea pig anti-insulin/mouse insulin complex immobilized to the microplate wells were incubated with Horseradish peroxidase (HRP)-conjugated anti-insulin antibody for 40 minutes at room temperature with continuous agitation. Excess unbound HRP-conjugated anti-insulin antibodies were then washed excessively with wash buffers and the HRP-mediated color reaction was developed with the addition of 3,3′,5,5′ tetramethylbenzidine (TMB) substrate solution. The amount of insulin (ng/ml) present in the test samples were then measured via interpolation using the standard curve generated by plotting absorbance (at A^0450-A^0635) versus the corresponding concentration of a wide range (0.1-12.8 ng/ml) of mouse insulin standards according to the provider's instructions. Graphic representation of differences in mean±sem of plasma insulin among different groups of mice were blotted using Prism5 (La Jolla, Calif., USA) software and statistically significant differences (at 95% confidence) were calculated for the different test groups of mice using one way ANOVA followed by Bonferroni modified student t-test comparing differences between individual experimental groups.

[2] = tested on: type 2 diabetes NZO mouse model; experiment: HOMA-IR, HOMA-B and insulin sensitivity index (Si); type: in vivo
Procedure: as §1
HOMA IR=fasting glucose (mmol/L)×fasting insulin ([…])/22.5 according to the method of Bonora E et al., 2000. Pancreatic β-Cell function (HOMA-B) was calculated according to the method of Tresaco B et al., 2005, HOMA-B=[20×[…]). Insulin sensitivity (Si) was determined according to the method of Matthews D et al., 1985. Si=[basal glucose]−[glucose 15 min]/15).

[3] = tested on: female NZO mice fed a continuous high fat diet; experiment: Weight loss, comparison of macrolides; type: in vivo, mouse; details: tacrolimus 0.05 or 0.1 mg/kg, pimecrolimus 0.1 mg/kg, sirolimus 0.1 mg/kg s.c. every other day for three weeks; vs vehicle
Text: as §2

[4] = tested on: high fat fed female NZO mice; experiment: Ovarian histology of macrolide-treated chronically high fat fed NZO mice; type: in vivo, mouse; details: chronically high fat diet fed NZO mice
Procedure: Statistical differences between groups were measured by two-way analysis of variance (ANOVA) followed by Bonferroni post-hock t-test comparing effect of all tested macrolides on mean follicular structure counts/unit area at 95% confidence. Scale bars=200 μm for B, D, F, G, H, I, J and 50 μm for A, C, E. N=10 (HFD-NZO), 6 per treatment group. A, C and E are higher magnifications of B, D and F respectively. * denoting ovarian cyst(s).
as §2

[5] = tested on: NZO mice fed a high fat diet; experiment: Implantation rate and resorption, comparison of macrolides; type: in vivo, mouse; details: vs vehicle
Procedure: as §2
Peri-implantation (E4.5) and post-implantation (E6.5) pregnant and/or pseudopregnant (E4.5bid and E6.5bid) mouse uteri were prepared after mating respectively with fertile and/or vasectomized males as previously described (Herington et al. Endocrinol 2009 150: 4404-4413). The morning of vaginal plug detection was considered as gestational day 0.5 (E0.5 or Gd.0.5). An average number of twenty Concanavalin A(ConA)-coated sepharose beads (average size of 0.1 mm-diameter) (Sigma-Aldrich, Burlington, Ontario, Canada) was injected into the lumen of the left uterine horn of anesthetized animals between hours 13:00 and 16:00 on day 2.5 of pseudopregnancy according to the procedure described by Herington et al. (Endocrinol, 2009 150: 4404-4413). With the use of Ketamine/Xyalzine anesthesia and cardiac puncture, all animals were sacrificed at the age of 16-18 weeks between the morning hours 09:00-11:00. Pregnant and pseudopregnant mice were sacrificed in the morning of days 4.5 and 6.5 of their respective pregnancy. Blood samples were collected from all animals and were let stand for 1 hour at room temperature before isolation of the serum. Serum samples were stored at −80° C. until they were analyzed for their steroid hormones and lipid contents by appropriate laboratory procedures such as radio-immunoassay (RIA) all of which were conducted at the Department of Clinical Chemistry (Kingston General Hospital, Kingston, Ontario, Canada). Ovaries, oviducts and uteri were carefully dissected out of carcasses and were placed in ice-cold phosphate buffered saline (PBS)-containing petri dishes. Under a dissecting microscope, uteri were carefully isolated from their attached uterine tubes, trimmed of all mesenteric fat and were immediately weighed. The numbers of corpora lutea and implantation sites (viable and resorbed) were counted, respectively, from E4.5 and E6.5 pregnant mouse ovaries and uteri. For protein and RNA extraction, virgin uteri and segments of uterine horns containing inter-implantation sites of pregnant and pseudopregnant uteri were transected and snapped frozen in liquid nitrogen.
Examination of external morphological features of uteri of pregnant mice, including counts of implantation sites and photography was performed using a computerized dissecting microscope (Leica Diagnostic Instruments, USA) and the image acquisition and analytic software (SPOT 2.2.0). Percentage of peri-implantation embryo loss was calculated as described by Bindali and Kaliwal (Ind. Health, 2002 40:191-197), using the formula: % Preimplantation loss=[Total number of corpora lutea−Total number of implantation]/Total number of corpora lutea. Immunohistochemical localization and assessment of microscopic morphological features of implantation and inter-implantation sites in normoglycemic and diabetic NOD mice were performed on methacarn (60% methanol, 30% chloroform and 10% acetic acid)-fixed specimens. […]

[6] = 0.1 mg/kg s.c. every other day for 3 weeks, vs vehicle

For `CC[C@@H]1/C=C(\C)C[C@H](C)C[C@H](OC)[C@H]2O[C@@](O)(C(=O)C(=O)N3CCCC[C@H]3C(=O)O[C@H](/C(C)=C/[C@@H]3CC[C@H](Cl)[C@H](OC)C3)[C@H](C)[C@@H](O)CC1=O)[C@H](C)C[C@@H]2OC` [pimecrolimus], the “fasting basal serum glucose” value [1, 6] was “maintained low fasting basal serum glucose and insulin levels”, the “fasting basal serum insulin” value [1, 6] was “maintained low fasting basal serum glucose and insulin levels” and the glucose intolerance ([1]; 0.1 mg/kg, FIG. 17C, p=0.0001) was “significantly reduced glucose intolerance although to a lesser degree than tacrolimus”. The “insulin secretion in response to a hyperglycemic challenge” value ([1]; tacrolimus 0.1 or 0.05 mg/kg, pimecrolimus 0.1 mg/kg, sirolimus 0.1 mg/kg s.c. every other day for 3 weeks, vs vehicle) was “significantly improved insulin secretion”, the “insulin resistance (HOMA-IR)” value ([2]; p<0.001 vs vehicle) was “significantly reduced insulin resistance” and the “insulin sensitivity (Si)” value ([2]; p<0.01 vs vehicle) was “enhanced insulin sensitivity”. For the same compound, the “pancreatic β-cell function (HOMA-B)” value ([2]; p<0.05 vs vehicle) was “enhanced pancreatic β-cell function”, the weight loss [3] was “induced statistically significant weight loss” and the “follicular growth pattern in the ovaries” value [4] was “restored follicular growth pattern”. For the same compound, the ovarian cyst formation ([4]; p<0.001) was “inhibited the development of ovarian cysts”, the ovarian follicular atresia ([4]; vs untreated HFD-NZO) was “significantly inhibited ovarian follicular atresia (p<0.01)” and the “embryonic and fetal absorption rate” value ([5]; same treatments, p<0.05) was “significantly reduced embryonic and fetal absorption rate”. The implantation rate ([5]; tacrolimus 0.05 and 0.1 mg/kg, pimecrolimus 0.1 mg/kg, sirolimus 0.1 mg/kg s.c. every other day for three weeks) was “significantly improved implantation rate (p<0.05)”.
